Test results as given in patent US20100280987A1, “METHODS AND GENE EXPRESSION SIGNATURE FOR ASSESSING RAS PATHWAY ACTIVITY” (priority 2009, published 2010).
Entries after “also recorded” stand apart in the source; their conditions may differ.

What was measured:
[1] = tested on: p53 loss of function and KRas mutant lung tumors (7450 KP-model); assay: tumor progression in 7450 KP-model mice; format: in vivo; conditions: 7450 KP mice, after 4 weeks of treatment (data not shown)
[2] = blood concentration of AZD6244 post-dose in mice; format: in vivo, CD-1 nude mice
RAS pathway signature = RAS pathway signature score in tumors after treatment in vivo; conditions: 7450 KP-model mice, 150 mpk, three doses 10 hours apart, tumors 4 hours post last dose; 150 mg/kg
Protocol: As a first step in the analysis of the RAS signatures, we assessed the coherency of the signatures across four cell line panels from lung, colon, breast, and lymphoid malignancies. The purpose of coherence analysis is to show the statistical significance of the difference between the “Up” and “Down” arms of the signature in a new dataset. Two correlation coefficients were calculated for all of the genes in both the Up and Down arms. First, the correlation between each gene in the Up arm and the average of all genes in the Up arm is calculated. Second, the anticorrelation between each gene in the Up arm and the average of all genes in the Down arm is calculated. This is repeated for genes in the Down arm. […] A Fisher exact test is calculated for correlation within and between arms of the signature to assess the significance of signature coherence in a new dataset. […] RAS pathway activity (or regulation) is summarized into a RAS signature score, which is calculated as: (mean expression of Up genes (Table 2a))—(mean expression of Down genes (Table 2b)). […]
The 7450 KP mice were treated with a small molecule MEK inhibitor, AZD6244 (Ohren et al., 2004, Nat. Struct. Mol. Biol. 11:119201197). […] RAS signature pathway signatures scores were calculated as previously described for each time point and plotted (FIG. 18).

MEK1 and MEK2 = conditions: purified enzyme, read-out: in vitro IC50 against purified enzyme; cited from earlier work

clearance post-dose ([2]; CD-1 nude mice): cleared quickly
half-life in vivo ([2]; in vivo): short half-life
blood concentration after the peak ([2]; mice (CD-1 nude mice), blood): decreased rapidly
Structure (SMILES): Cn1cnc2c(F)c(Nc3ccc(Br)cc3Cl)c(C(=O)NOCCO)cc21 [AZD6244]
tumor progression compared vehicle [1]: significantly halted tumor progression
RAS pathway signature score in vivo at 4 hours post-dose (RAS pathway signature): down regulated; also recorded: down-regulated
IC50 (MEK1 and MEK2): 10 to 14 nM
